The results in this text go back to PubChem BioAssay AID588771 (The Scripps Research Institute Molecular Screening Center, 2011).

In the assay the target is 3C-like protease (3CLpro), SARS coronavirus. The experiment in a line: SARS 3CLpro protease inhibitor potency, late-stage follow-up, biochemical, fluorescence, dose response, set 3 (AID 588771). The settings on record: purified 3CLpro, fluorogenic substrate cleavage.

Active and inactive are the calls of the source. How the calls were made is not given here.

For orientation: IC50 means the midpoint of a concentration-inhibition curve.

Take `CC(C)(C)NC(=O)C(c1ccnnc1)N(C(=O)c1ccco1)c1ccc(C(C)(C)C)cc1` (stereo not given): the IC50 result was “inactive”.

For `CC(C)(C)NC(=O)C(c1cccnc1)N(C(=O)c1ccco1)c1ccc(Cc2ccccc2)cc1` (stereo not given), the IC50 result is “inactive”.

With `CC(C)(C)NC(=O)[C@@H](c1cccnc1)N(C(=O)c1cnc[nH]1)c1ccc(C(C)(C)C)cc1`, the IC50 entry is “inactive”.

`CC(C)C(=O)Nc1ccc(N(C(=O)Cn2nnc3ccccc32)C(C(=O)NCc2ccccc2)c2cccc(F)c2)cc1` (stereo not given): the IC50 is 4.1 µM.

`CC(C)(C)NC(=O)[C@H](c1cccnc1)N(C(=O)c1cnc[nH]1)c1ccc(C(C)(C)C)cc1`: the IC50 was 4.5 µM.

In the case of `Cn1cnc(C(=O)N(c2ccc(C(C)(C)C)cc2)C(C(=O)NC(C)(C)C)c2cccnc2)c1` (stereo not given), the IC50 result was “inactive”.

Take `CC(C)(C)NC(=O)C(c1cnccn1)N(C(=O)c1ccco1)c1ccc(C(C)(C)C)cc1` (stereo not given): the IC50 was 5.5 µM.

As to `CC(C)(C)NC(=O)C(c1ccncc1)N(C(=O)c1ccco1)c1ccc(C(C)(C)C)cc1` (stereo not given), the IC50 result is “inactive”.

With `O=C(Nc1ccc(N(C(=O)Cn2nnc3ccccc32)C(C(=O)NCc2ccccc2)c2cccc(F)c2)cc1)C1CCC1` (stereo not given), the IC50 is 2.3 µM.

Regarding `O=C(Nc1ccc(N(C(=O)Cn2nnc3ccccc32)C(C(=O)NCc2ccccc2)c2cccc(F)c2)cc1)C1CC1` (stereo not given), the IC50 is 3 µM.
